Test results from PubChem BioAssay (NCI).
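1) Cells in 96-well plates. 2) Compound, 48 h, 5 concentrations. 3) Linear interpolation between surrounding doses. 4) Unreached endpoint = highest concentration. Abbreviation: GI50, concentration required for 50% inhibition of growth. TGI: total growth inhibition.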

What was measured:
Experiment in all cases: growth of human tumour cells (NCI), 48 h; in the data active = GI50 below about 0.43 µM; inactive = the rest
[1] = tested on: HCC-2998 colon
[2] = tested on: OVCAR-8 ovarian
[3] = tested on: SR leukemia
[4] = tested on: OVCAR-5 ovarian
[5] = tested on: HOP-92 NSCLC
[6] = tested on: HS 578T breast
[7] = tested on: U251 CNS
[8] = tested on: UO-31 renal
[9] = tested on: BT-549 breast
[10] = tested on: OVCAR-3 ovarian
[11] = tested on: UACC-62 melanoma
[12] = tested on: SK-OV-3 ovarian
[13] = tested on: SN12C renal
[14] = tested on: MCF7 breast
[15] = tested on: RPMI-8226 leukemia
[16] = tested on: SK-MEL-28 melanoma
[17] = tested on: CAKI-1 renal
[18] = tested on: MOLT-4 leukemia
[19] = tested on: RXF 393 renal
[20] = tested on: TK-10 renal
[21] = tested on: KM12 colon
[22] = tested on: SNB-19 CNS
[23] = tested on: K-562 leukemia
[24] = tested on: COLO 205 colon
[25] = tested on: NCI-H522 lung
[26] = tested on: T-47D breast
[27] = tested on: HCT-116 colon
[28] = tested on: PC-3 prostate
[29] = tested on: HT29 colon
[30] = tested on: SF-295 CNS
[31] = tested on: HCT-15 colon
[32] = tested on: NCI-H226 lung
[33] = tested on: NCI/ADR-RES ovarian
[34] = tested on: IGROV1 ovarian
[35] = tested on: A498 renal
[36] = tested on: SK-MEL-5 melanoma
[37] = tested on: MALME-3M melanoma
[38] = tested on: SK-MEL-2 melanoma
[39] = tested on: SNB-75 CNS
[40] = tested on: HL-60(TB) leukemia
[41] = tested on: NCI-H23 lung
[42] = tested on: DU-145 prostate
[43] = tested on: MDA-MB-435
[44] = tested on: M14 melanoma
[45] = tested on: HOP-62 NSCLC
[46] = tested on: ACHN renal
[47] = tested on: NCI-H460 lung
[48] = tested on: CCRF-CEM leukemia
[49] = tested on: 786-0 renal
[50] = tested on: SF-268 CNS
[51] = tested on: LOX IMVI melanoma
[52] = tested on: SF-539 CNS
[53] = tested on: OVCAR-4 ovarian
[54] = tested on: UACC-257 melanoma
[55] = tested on: SW-620 colon
[56] = tested on: A549 NSCLC

C/C(=N/NC(=O)c1ccncc1)C(F)(F)F
> 100000 nM: TGI [5] | TGI [10] | TGI [12] | TGI [21] | TGI [24] | TGI [29] | TGI [33] | TGI [35] | TGI [36] | TGI [42]
> 100 µM: TGI [1] | TGI [2] | TGI [3] | TGI [4] | TGI [6] | TGI [7] | TGI [8] | TGI [9] | TGI [11] | TGI [13] | TGI [14] | TGI [15] | TGI [16] | TGI [17] | TGI [18] | TGI [19] | TGI [20] | TGI [22] | TGI [23] | TGI [25] | TGI [26] | TGI [27] | TGI [28] | TGI [30] | TGI [31] | TGI [32] | TGI [34] | TGI [37] | TGI [38] | TGI [39] | TGI [40] | TGI [41] | TGI [43] | TGI [44] | TGI [45]

N#CCCNc1nonc1-c1nc2ccccc2n1CC(=O)c1ccc(N)cc1
42.9 nM: TGI [33]
> 32.9 µM: TGI [47]
123 nM: TGI [36]
456 nM: TGI [5]
1190 nM: TGI [52]
< 0.0166 µM: TGI [43]
47.7 nM: TGI [24]
1280 nM: TGI [21]
66.5 nM: TGI [12]
> 73 µM: TGI [39]
98.4 nM: TGI [42]
22.9 µM: TGI [9]
inactive: GI50 [53] 1880 nM | GI50 [26] 29 µM | GI50 [38] 498 nM
> 82 µM: TGI [50]
> 90.9 µM: TGI [20]
54.9 nM: TGI [10]
active: GI50 [46] 36.2 nM | GI50 [1] 33.8 nM | GI50 [2] 35.4 nM | GI50 [47] 31.7 nM | GI50 [48] 29 nM | GI50 [3] < 13.5 nM | GI50 [4] 59.3 nM | GI50 [5] < 10 nM | GI50 [6] 19.2 nM | GI50 [7] 36 nM | GI50 [8] 282 nM | GI50 [9] 28.9 nM | GI50 [10] 20.7 nM | GI50 [11] < 15.4 nM | GI50 [12] 18.9 nM | GI50 [49] 41.7 nM | GI50 [13] 44.7 nM | GI50 [14] < 19 nM | GI50 [15] 30.9 nM | GI50 [16] 35.1 nM | GI50 [50] 23 nM | GI50 [51] 32.6 nM | GI50 [52] 25.2 nM | GI50 [17] 70.1 nM | GI50 [18] 30.1 nM | GI50 [19] 12.9 nM | GI50 [21] < 11.8 nM | GI50 [23] < 10 nM | GI50 [24] 22 nM | GI50 [25] < 10 nM | GI50 [27] 28.5 nM | GI50 [28] 27.1 nM | GI50 [29] 22.6 nM | GI50 [30] < 10 nM | GI50 [31] 33.4 nM | GI50 [32] 98 nM | GI50 [33] < 10 nM | GI50 [34] 35.6 nM | GI50 [35] < 10 nM | GI50 [36] 27.1 nM | GI50 [55] 31 nM | GI50 [39] 23.2 nM | GI50 [40] < 16.4 nM | GI50 [56] 34.5 nM | GI50 [41] 31.2 nM | GI50 [42] 28.8 nM | GI50 [43] < 10 nM | GI50 [44] 24.9 nM | GI50 [45] 43.2 nM
70.1 nM: TGI [29]
87.3 nM: TGI [35]
< 0.01 µM: TGI [25]
> 77.8 µM: TGI [28]
> 100 µM: TGI [46] | TGI [1] | TGI [2] | TGI [48] | TGI [3] | TGI [4] | TGI [6] | TGI [7] | TGI [8] | TGI [11] | TGI [49] | TGI [13] | TGI [14] | TGI [16] | TGI [51] | TGI [17] | TGI [19] | TGI [53] | TGI [22] | TGI [54] | TGI [23] | TGI [26] | TGI [30] | TGI [31] | TGI [32] | TGI [34] | TGI [37] | TGI [55] | TGI [56] | TGI [41] | TGI [44] | TGI [45]
